# Experimental data published in patent US20240277890A1, “ANTIMICROBIAL ARTICLES COMPRISING POLYURETHANE” (Amicoat AS, priority 2021, published 2024).
# Read-outs that look alike come from different tables or passages of the source. Peptide text beside a SMILES is read from it. * marks the point of attachment. NHPhenethyl = c1ccc(CCN*)cc1
# What was measured:
# [1] = test system: Methicillin resistant Staphylococcus epidermidis (MRSE) strain ATCC 27626
# [2] = test system: Staphylococcus aureus, strain ATCC 25923
# [3] = test system: Methicillin resistant Staphylococcus aureus (MRSA) strain ATCC 33591
# [4] = test system: Eggerthella lenta - ATCC 43055; assay: MIC microbroth dilution (CLSI), extra control strain; assay type: cell-based; parameters: unit not given here; conditions: E. lenta ATCC 43055; SBB
# [5] = test system: Pseudomonas aeruginosa ATCC27853 - antibiotic-susceptible type strain; parameters: MIC (repeat control strain): unit not given beside the values; conditions: P. aeruginosa ATCC 27853
# [6] = test system: Staphylococcus haemolyticus - antibiotic susceptible clinical isolate; conditions: S. haemolyticus antibiotic susceptible isolate
# [7] = test system: Salmonella sp - multi-drug resistant clinical isolate; assay: MIC microbroth dilution (CLSI); assay type: cell-based
# [8] = test system: Haemophilus influenzae - ATCC 47247; assay: MIC microbroth dilution (CLSI), extra control strain; parameters: unit not given beside the values; conditions: H. influenzae ATCC 47247; plate type HTM
# [9] = test system: Bacteroides fragilis - ATCC 25285; assay: as above; assay type: cell-based; parameters: unit not given here; conditions: B. fragilis ATCC 25285; SBB
# [10] = test system: Shigella sp - antibiotic-susceptible clinical isolate; assay: MIC microbroth dilution (CLSI); assay type: cell-based
# [11] = test system: Staphylococcus aureus FDA486; assay: Murine skin infection model, one day topical treatment; assay type: in vivo, mice; conditions: cream or gel containing 2% (w/w) of compound; three topical treatments at three hourly intervals; compared to placebo
# Protocol: (§1) The skin of mice was infected with Staphylococcus aureus or Streptococcus pyogenes and subsequently given a total of three treatments at three hourly intervals. Three hours after the last treatment, skin biopsies were collected and the number of colony forming units (CFUs) present in the skin sample was determined. Results are shown in FIGS. 3, 4 and 5 expressed as the number of colony forming units per mouse.
# [12] = test system: Streptococcus pyogenes CS301; assay: as above; assay type: in vivo, mice
# Protocol: as §1
# [13] = test system: Salmonella sp - antibiotic-susceptible clinical isolate; assay: MIC microbroth dilution (CLSI); assay type: cell-based
# [14] = test system: Clostridium difficile - antibiotic-susceptible clinical isolate; assay: MIC microbroth dilution (CLSI); assay type: cell-based; parameters: unit not given beside the values; conditions: C. difficile antibiotic-susceptible
# Protocol: Supplemented Brucella broth (SBB) was used for the anaerobic strains with an inoculum of approximately 10^6 CFU/mL. SBB is a broth consisting of 1% peptone, 0.5% ‘Lab-lemco’, 1% glucose and 0.5% sodium chloride supplemented with 5 μg/L haemin and 1 μg/L vitamin K (both obtained from Sigma Aldrich Ltd.) Yeast and filamentous fungal MIC were performed in MOPS buffered RPMI 1640 medium (MOPS buffer obtained from Sigma Aldrich Ltd., RPMI 1640 obtained from Invitrogen Ltd, Paisley, Scotland). The yeast inocula were in the range 7.5×10^2-4×10^3 CFU/mL and the filamentous fungi approximately 8×10^3-1×10^5 CFU/mL.
# [15] = test system: Enterococcus faecalis - ATCC 29212 antibiotic-susceptible control strain; parameters: MIC (repeat control strain): unit not given beside the values; conditions: E. faecalis ATCC 29212
# [16] = test system: Candida parapsilosis ATCC 22019; assay: MIC microbroth dilution (CLSI), extra control strain; assay type: cell-based; parameters: unit not given here; conditions: C. parapsilosis ATCC 22019; RPMI 1640
# [17] = test system: Escherichia coli ATCC25922 - antibiotic-susceptible type strain; parameters: MIC (repeat control strain): unit not given beside the values; conditions: E. coli ATCC 25922
# [18] = test system: Microsporum canis - G.R. Micro collection; conditions: M. canis
# [19] = test system: Staphylococcus aureus ATCC 29213 - antibiotic-susceptible control strain; parameters: MIC (repeat control strain): unit not given beside the values; conditions: S. aureus ATCC 29213
# P. aeruginosa = conditions: Table 5
# E. coli = conditions: Table 5
# trypsin = assay: in vitro; assay type: in vitro ADME; conditions: pH 8.6
# Protocol: Each peptide was dissolved in a 0.1 M NH4HCO3 buffer (pH 6.5) to yield a final peptide concentration of 1 mg/ml. A trypsin solution was prepared by dissolving 1 mg of trypsin in 50 ml 0.1 M NH4HCO3 buffer (pH 8.2). For the stability determination, 250 μl freshly made trypsin solution and 250 μl peptide solution were incubated in 2 ml of 0.1 M NH4HCO3 buffer (pH 8.6) at 37° C. on a rocking table. Aliquots of 0.5 ml were sampled at different time intervals, diluted with 0.5 ml water:acetonitrile (60:40 v/v) containing 1% TFA and analysed by RP-HPLC as described above. Samples without trypsin addition taken at 0 h and after 20 h at 37° C. were used as negative controls. Integration of the peak area at 254 nm for samples taken during the first 5 hours of the assay was used to generate the τ1/2.
# [20] = Staphylococcus aureus ATCC 25923
smiles,measurement,setting,value
CCCCNC(=O)[C@H](CCCNC(=N)N)NC(=O)[C@H](Cc1c(C(C)(C)C)[nH]c2c(C(C)(C)C)cc(C(C)(C)C)cc12)NC(=O)[C@@H](N)CCCNC(=N)N [Compound 9],MRSE (MIC),[1]; ATCC 27626,<2 µg/mL
same,S. aureus (MIC),[2]; ATCC 25923,2 µg/mL
same,MRSA (MIC),[3]; ATCC 33591,3 µg/mL
same,C. albicans (MIC),C. albicans,10 µg/mL
same,S. pyogenes (MIC),S. pyogenes,2 µg/mL
CC(C)(C)c1cc(C(C)(C)C)c2[nH]c(C(C)(C)C)c(CC(NC(=O)C(N)CCCNC(=N)N)C(=O)NC(CCCNC(=N)N)C(=O)NCCc3ccccc3)c2c1 (stereo not shown) [Compound 2],MIC (control strain),[4],32
same,MIC (repeat control strain),[5]; plate type Fresh MHB,8
same,MIC (repeat control strain),[5]; plate type Frozen MHB,8
same,MIC,[6],4
same,MIC,[7],8
same,MIC (control strain),[8],4
same,MIC (control strain),[9],64
same,MIC,[10],8
same,number of CFUs in skin biopsy,[11],the number of CFUs was reduced
same,number of CFUs in skin biopsy,"[12]; 1% or 2% gel, three topical treatments at three hourly intervals, compared to placebo gel and bactroban",more effective at reducing the number of CFUs than the placebo gel or the bactroban
same,"number of CFUs in skin biopsy, 2% gel versus 1% gel",[12]; gel containing 2% compared to gel containing 1%,more effective than the gel containing only 1% of compound 2
same,MIC,[13],8
same,MIC,[14],16
same,MIC (repeat control strain),[15]; plate type Fresh MHB,4
same,MIC (repeat control strain),[15]; plate type Frozen MHB,8
same,MIC (control strain),[16],8
same,MIC (repeat control strain),[17]; plate type Fresh MHB,8
same,MIC (repeat control strain),[17]; plate type Frozen MHB,8
same,MIC,[18],8
same,MIC (repeat control strain),[19]; plate type Fresh MHB,2
same,MIC (repeat control strain),[19]; plate type Frozen MHB,4
CC(C)CNC(=O)[C@H](CCCNC(=N)N)NC(=O)[C@H](Cc1c(C(C)(C)C)[nH]c2c(C(C)(C)C)cc(C(C)(C)C)cc12)NC(=O)[C@@H](N)CCCNC(=N)N [Compound 12],MRSE (MIC),[1]; ATCC 27626,2 µg/mL
same,S. aureus (MIC),[2]; ATCC 25923,<2 µg/mL
same,MRSA (MIC),[3]; ATCC 33591,3 µg/mL
same,C. albicans (MIC),C. albicans,10 µg/mL
same,S. pyogenes (MIC),S. pyogenes,2 µg/mL
CC(C)(C)c1cc(C(C)(C)C)c2[nH]c(C(C)(C)C)c(C[C@H](NC(=O)[C@@H](N)CCCNC(=N)N)C(=O)N[C@@H](CCCNC(=N)N)C(=O)NC3CCCC3)c2c1 [Compound 14],MRSE (MIC),[1]; ATCC 27626,<2 µg/mL
same,S. aureus (MIC),[2]; ATCC 25923,<2 µg/mL
same,C. albicans (MIC),C. albicans,10 µg/mL
same,S. pyogenes (MIC),S. pyogenes,2 µg/mL
CCCCCCCCCCCCCCCCNC(=O)[C@H](CCCNC(=N)N)NC(=O)[C@H](Cc1c(C(C)(C)C)[nH]c2c(C(C)(C)C)cc(C(C)(C)C)cc12)NC(=O)[C@@H](N)CCCNC(=N)N [Compound 11],P. aeruginosa (MIC),P. aeruginosa,>100 µg/mL
same,MRSE (MIC),[1]; MRSE ATCC 27626,4 µg/mL
same,S. aureus (MIC),[2]; [20],5 µg/mL
same,MRSA (MIC),[3]; MRSA ATCC 33591,4 µg/mL
same,E. coli (MIC),E. coli,>100 µg/mL
same,C. albicans (MIC),C. albicans; Table 5,>100 µg/mL
same,S. pyogenes (MIC),S. pyogenes; Table 5,6 µg/mL
CCCNC(=O)[C@H](CCCNC(=N)N)NC(=O)[C@H](Cc1c(C(C)(C)C)[nH]c2c(C(C)(C)C)cc(C(C)(C)C)cc12)NC(=O)[C@@H](N)CCCNC(=N)N [Compound 10],MRSE (MIC),[1]; ATCC 27626,<2 µg/mL
same,S. aureus (MIC),[2]; ATCC 25923,2 µg/mL
same,MRSA (MIC),[3]; ATCC 33591,3 µg/mL
same,C. albicans (MIC),C. albicans,10 µg/mL
same,S. pyogenes (MIC),S. pyogenes,2 µg/mL
"N=C(N)NCCC[C@H](NC(=O)[C@H](Cc1c[nH]c2ccccc12)NC(=O)[C@@H](N)CCCNC(=N)N)C(=O)NCCc1ccccc1 [Compound 6, reference compound] (H-Arg-Trp-Arg-NHPhenethyl)",MIC MRSE,[1]; MRSE ATCC 27626,81 µM
same,MIC S. aureus,[2]; [20],145 µM
same,MIC MRSA,[3]; MRSA ATCC 33591,97 µM
N=C(N)NCCC[C@H](NC(=O)[C@H](Cc1ccc(-c2cccc3ccccc23)cc1)NC(=O)[C@@H](N)CCCNC(=N)N)C(=O)NCCc1ccccc1 [Compound 3],MIC MRSE,[1]; MRSE ATCC 27626,3 µM
same,MIC MRSA,[3]; MRSA ATCC 33591,3 µM
N=C(N)NCCC[C@H](NC(=O)[C@H](Cc1ccc(-c2ccc(-c3ccccc3)cc2)cc1)NC(=O)[C@@H](N)CCCNC(=N)N)C(=O)NCCc1ccccc1 [Compound 5],MIC MRSE,[1]; MRSE ATCC 27626,3 µM
same,MIC S. aureus,[2]; [20],5 µM
same,MIC MRSA,[3]; MRSA ATCC 33591,3 µM
N=C(N)NCCC[C@H](NC(=O)[C@H](Cc1ccc(-c2ccc3ccccc3c2)cc1)NC(=O)[C@@H](N)CCCNC(=N)N)C(=O)NCCc1ccccc1 [Compound 1],half-life at 0.1 mg/ml,trypsin,> 24 h
same,MIC MRSE,[1]; MRSE ATCC 27626,<3 µM
same,MIC S. aureus,[2]; [20],4 µM
same,MIC MRSA,[3]; MRSA ATCC 33591,<3 µM
CC(C)(C)c1cc(C(C)(C)C)c2[nH]c(C(C)(C)C)c(C[C@H](NC(=O)[C@@H](N)CCCNC(=N)N)C(=O)N[C@@H](CCCNC(=N)N)C(=O)NC3CCCCC3)c2c1 [Compound 13],MRSE (MIC),[1]; ATCC 27626,2 µg/mL
same,S. aureus (MIC),[2]; ATCC 25923,<2 µg/mL
same,MRSA (MIC),[3]; ATCC 33591,2 µg/mL
same,C. albicans (MIC),C. albicans,10 µg/mL
same,S. pyogenes (MIC),S. pyogenes,<2 µg/mL
